This is an account of results in ChEMBL document CHEMBL1201862, “PubChem BioAssay data set” (2004).

Some test systems named below: DMS-273; HOP-18; RXF 631; BT-549; DU-145; MDA-MB-231; MDA-N; Hs-578T; T47D.
Assay in all cases: DTP human tumour cell line panel, 48 h

The structures appear in SMILES notation.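 Following 48 hours of exposure in 96-well plates, responses at five concentrations were used to interpolate endpoints linearly. GI50 = concentration required for 50% inhibition of growth.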 The source made the active and inactive calls. Cut-off read from the data, not from the text of the source: active = GI50 up to about 1.1 µM and inactive = higher. Where only a bound is given, the exact number is not on record here.

In general, GI50 refers to the concentration that inhibits growth by half. For the compound `Cc1cn(C2CC(O)C(CO)C2C)c(=O)[nH]c1=O` (stereo not drawn), the GI50 with DMS-273, in the experiment with HOP-18 and in the experiment with RXF 631 was > 100 µM (inactive) in each case.
In the case of `O[C@@]12Cc3c([nH]c4ccccc34)[C@@H]3Oc4cccc5c4[C@@]31CCN(CC1CC1)[C@@H]2C5`, the GI50 in the experiment on BT-549 was 19.8 µM (inactive); with DU-145, 27 µM (inactive); in the experiment with MDA-MB-231, 25.7 µM (inactive); in the experiment on MDA-N, 19.6 µM (inactive).
As for `CCNc1cnc2c(n1)c(=O)n(C)c(=O)n2C`, the GI50 in the experiment on DMS-273 is > 100 µM (inactive).
For `CN1CCN(P2(=S)Oc3ccc4ccccc4c3-c3c(ccc4ccccc34)O2)CC1`, the GI50 was 22.4 µM (inactive) in the experiment on DMS-273 and > 65.2 µM (inactive) in the experiment with HOP-18.
For `c1ccc(CCn2cncn2)cc1`, the GI50 with DMS-273 and in the experiment on RXF 631 was > 100 µM (inactive) throughout.
On to `CSc1ncc2c(n1)sc1c(=O)n(-c3ccccc3)cnc12`, for which the GI50 in the experiment on BT-549, with DU-145, with Hs-578T, with MDA-MB-231, with MDA-N and in the experiment with T47D was > 100 µM (inactive) in each case.
On to `O=C1N/C(=N/N=C/c2c[nH]c3ccccc23)N/C1=C\c1cccs1`, for which the GI50 is > 100 µM (inactive) in the experiment with BT-549; > 100 µM (inactive) with DU-145; > 100 µM (inactive) with Hs-578T; 40.4 µM (inactive) in the experiment with MDA-MB-231; > 100 µM (inactive) in the experiment on MDA-N; > 100 µM (inactive) in the experiment on T47D.
Regarding `CNS(=O)(=O)NN(C)S(=O)(=O)c1ccc(F)cc1`, the GI50 in the experiment with DMS-273 and with HOP-18 was > 100 µM (inactive) throughout.
As for `CCSc1nc(N/N=C/c2cccs2)c2cnn(CO)c2n1`, the GI50 in the experiment on DU-145 is 10.3 µM (inactive); in the experiment on Hs-578T it was 4.31 µM (inactive); in the experiment with MDA-MB-231 it was 18.3 µM (inactive); with T47D, 3.8 µM (inactive).
Take `COc1cc2c(cc1OC)-c1cc3ccccc3c[n+]1CC2`: the GI50 in the experiment with BT-549 is 54.7 µM (inactive); in the experiment with DU-145, > 100 µM (inactive); with Hs-578T, 23.8 µM (inactive); in the experiment on MDA-MB-231, > 100 µM (inactive); in the experiment on MDA-N it was > 100 µM (inactive); in the experiment with T47D, 42.6 µM (inactive).
Turning to `CCCCCCCCCCCCCCCCCc1cc(Cl)nc(Cl)n1`, the GI50 in the experiment with BT-549 and with Hs-578T was > 100 µM (inactive) in each case.
In the case of `Cc1cc(C)c(C2=NO[C@@H]3C(=O)N(c4ccc(Cc5ccc(N6C(=O)[C@H]7C(c8c(C)cc(C)cc8C)=NO[C@H]7C6=O)cc5)cc4)C(=O)[C@H]23)c(C)c1`, the GI50 in the experiment on DMS-273 and in the experiment with HOP-18 was > 100 µM (inactive) in each case.
In the case of `CC1(C)OC2OC(COC(=O)c3ccc(C#N)cc3)C3OC(C)(C)OC3C2O1` (stereo not drawn), the GI50 in the experiment on BT-549, in the experiment on DU-145, in the experiment on MDA-MB-231 and in the experiment with MDA-N was > 75 µM (inactive) throughout.
On to `Cc1cc(C)n(-c2c(O)ccc(O)c2-n2nc(C)cc2C)n1`, for which the GI50 in the experiment on DMS-273 and in the experiment with RXF 631 was > 100 µM (inactive) throughout.
For `CCOC(=O)/C=C(\C)c1ccc(Cl)cc1`, the GI50 in the experiment with DMS-273, in the experiment on HOP-18 and with RXF 631 was > 100 µM (inactive) throughout.
As for `Nc1ccc(Sc2nnc(N)s2)cc1`, the GI50 in the experiment with Hs-578T, in the experiment on MDA-MB-231, in the experiment on MDA-N and in the experiment on T47D was > 100 µM (inactive) throughout.
Turning to `CC1=NC=C(O)c2ccccc2O1`, the GI50 in the experiment on DMS-273 was > 100 µM (inactive).
Regarding `CSc1cc(-c2cc3ccccc3o2)oc(=O)c1C#N`, the GI50 in the experiment with DMS-273 is > 100 µM (inactive); with HOP-18, 0.637 µM (active); in the experiment with RXF 631, 64.7 µM (inactive).
`COC1=C2CC(C)CC(OC)C(O)C(C)/C=C(\C)C(OC(N)=O)C(OC)/C=C\C=C(/C)C(=O)NC(=C(/C=N/C(C)(C)C)C1=O)C2=O` (stereo not drawn): the GI50 was 0.986 µM (active) in the experiment on DMS-273 and 6.85 µM (inactive) in the experiment on HOP-18.
As to `CCN(CC)/[N+]([O-])=N/OC`, in the experiment on DMS-273, the GI50 is > 100 µM (inactive).
Turning to `CCOC(=O)/C=C/c1c(C)[nH]c(=O)[nH]c1=O`, the figures for the GI50 in the experiment with DMS-273 and in the experiment on HOP-18 were > 176 µM (inactive) and > 250 µM (inactive), respectively.
On to `CN(CCCNc1ccc2ncn3c4ccccc4c(=O)c1c23)CCCN1C(=O)c2cccc3cc([N+](=O)[O-])cc(c23)C1=O`, for which the GI50 in the experiment with BT-549 is 0.106 µM (active); with Hs-578T, 0.0879 µM (active); in the experiment on MDA-MB-231 it was 0.0201 µM (active); with MDA-N, 0.0321 µM (active); in the experiment on T47D, 1.18 µM (inactive).
With `CNC1=C(C)C(=O)C2=C(C1=O)C(COC(N)=O)C1(OC)C3NC3CN21` (stereo not drawn), the GI50 is 2.49 µM (inactive) in the experiment with Hs-578T, 0.574 µM (active) with MDA-N and 1.5 µM (inactive) with T47D.
Take `C/C(=N\NS(=O)(=O)c1ccccc1)c1ccccc1`: the GI50 with DMS-273 and in the experiment on HOP-18 was > 100 µM (inactive) in each case.
`Oc1ccc2ccccc2c1/N=N/c1cccc2ccccc12`: the GI50 in the experiment with BT-549 is > 100 µM (inactive); in the experiment on DU-145 it was > 100 µM (inactive); with Hs-578T it was 21.1 µM (inactive); in the experiment with MDA-MB-231, 49.9 µM (inactive); in the experiment on MDA-N, > 100 µM (inactive); in the experiment with T47D, > 100 µM (inactive).
Take `CC1(C)O[C@@H](C[C@]2(C#N)C[C@H](CCl)OC(C)(C)O2)C[C@@H](C#N)O1`: the GI50 in the experiment with DMS-273 and in the experiment on HOP-18 was > 100 µM (inactive) throughout.
For the compound `O=C1C(=O)c2ccccc2C=C1[N+](=O)[O-]`, the GI50 was > 100 µM (inactive) in the experiment with BT-549; 49 µM (inactive) with DU-145; 57.1 µM (inactive) in the experiment with Hs-578T; 18.1 µM (inactive) with MDA-MB-231; 19.7 µM (inactive) in the experiment with MDA-N; 32.8 µM (inactive) in the experiment on T47D.
In the case of `C=C1C[C@@H]2C[C@@H](C)CC(O)[C@]2(CCCN)C1O` (stereo partly drawn), the GI50 with DMS-273, in the experiment on HOP-18 and in the experiment on RXF 631 was > 100 µM (inactive) throughout.
On to `O=C1CNc2cc(N3CCCCC3)ccc2N1`, for which the GI50 was > 100 µM (inactive) in the experiment on BT-549; > 100 µM (inactive) in the experiment on DU-145; 4.43 µM (inactive) in the experiment with Hs-578T; 75.2 µM (inactive) with MDA-N; > 100 µM (inactive) with T47D.
Turning to `COc1cc(O)cc(/C=C/c2ccc(O)cc2)c1`, the GI50 in the experiment on BT-549 is 13.6 µM (inactive); in the experiment with DU-145, 39 µM (inactive); in the experiment with Hs-578T, 44.7 µM (inactive); with MDA-MB-231, 16 µM (inactive); in the experiment on T47D, 44.7 µM (inactive).
In the case of `C=C(C)C(=O)O[C@H]1CC2=C[C@@H](C[C@@]3(C)O[C@@H]3[C@H]3OC(=O)C(=C)[C@@H]31)OC2=O` [ELEPHANTOPIN], the results for the GI50 in the experiment on DMS-273 and in the experiment with HOP-18 were 2.79 µM (inactive) and 4.33 µM (inactive), respectively.
Take `COc1cc(O)c2c(c1)C(=O)c1cc(C)cc(O)c1C2=O` [PHYSCION]: the results for the GI50 in the experiment on HOP-18 and in the experiment on RXF 631 were 51.9 µM (inactive) and > 100 µM (inactive), respectively.
